The source of these data is article PMC6199744, “Development of Chemical Proteomics for the Folateome and Analysis of the Kinetoplastid Folateome” (ACS Infectious Diseases, 2018).

Read-outs that look alike come from different tables or passages of the source.

Assay type in all cases: binding
Test [1] concerns the target T1, HeLa cell extract proteins (Homo sapiens, UniProt Q9NQC3).
T1 construct: endogenous in cells; host or cells: HeLa cell extract
T1 sequence (Q9NQC3 1-1192): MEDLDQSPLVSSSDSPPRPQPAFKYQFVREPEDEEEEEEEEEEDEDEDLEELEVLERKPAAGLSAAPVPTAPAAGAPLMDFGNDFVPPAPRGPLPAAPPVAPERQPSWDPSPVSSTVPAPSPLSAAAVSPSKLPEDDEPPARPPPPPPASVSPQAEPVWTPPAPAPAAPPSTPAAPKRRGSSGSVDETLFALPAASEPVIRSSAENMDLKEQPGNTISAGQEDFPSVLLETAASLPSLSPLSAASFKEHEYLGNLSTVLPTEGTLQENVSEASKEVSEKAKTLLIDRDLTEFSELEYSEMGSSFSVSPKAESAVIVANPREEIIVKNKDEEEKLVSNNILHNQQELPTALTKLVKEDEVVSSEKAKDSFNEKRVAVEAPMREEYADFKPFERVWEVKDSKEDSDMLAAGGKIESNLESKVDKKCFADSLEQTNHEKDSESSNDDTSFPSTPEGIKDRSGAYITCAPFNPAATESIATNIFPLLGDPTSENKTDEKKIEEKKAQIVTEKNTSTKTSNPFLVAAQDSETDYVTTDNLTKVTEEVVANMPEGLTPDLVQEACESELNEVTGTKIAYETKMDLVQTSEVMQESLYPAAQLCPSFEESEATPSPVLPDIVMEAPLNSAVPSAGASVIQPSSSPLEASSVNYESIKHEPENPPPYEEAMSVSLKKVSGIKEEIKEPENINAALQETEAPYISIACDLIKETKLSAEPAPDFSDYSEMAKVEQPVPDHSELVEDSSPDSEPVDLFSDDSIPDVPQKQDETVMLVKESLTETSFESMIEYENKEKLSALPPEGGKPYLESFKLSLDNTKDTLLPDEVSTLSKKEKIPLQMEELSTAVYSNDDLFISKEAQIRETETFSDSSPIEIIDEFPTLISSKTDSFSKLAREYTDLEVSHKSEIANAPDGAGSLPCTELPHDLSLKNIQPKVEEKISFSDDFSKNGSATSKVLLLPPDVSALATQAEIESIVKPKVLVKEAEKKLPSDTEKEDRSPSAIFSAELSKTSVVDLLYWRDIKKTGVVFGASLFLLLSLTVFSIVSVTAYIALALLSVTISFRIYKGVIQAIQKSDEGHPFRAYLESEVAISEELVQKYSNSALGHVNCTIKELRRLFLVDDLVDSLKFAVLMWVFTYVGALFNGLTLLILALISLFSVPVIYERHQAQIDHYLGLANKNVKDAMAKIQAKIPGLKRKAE
Conditions: HeLa; protein RTN4.

In test [2] the target is T2, HeLa cell extract proteins (Homo sapiens, UniProt Q8WTW3).
T2 construct: endogenous in cells; host or cells: HeLa cell extract
T2 sequence (Q8WTW3 1-980): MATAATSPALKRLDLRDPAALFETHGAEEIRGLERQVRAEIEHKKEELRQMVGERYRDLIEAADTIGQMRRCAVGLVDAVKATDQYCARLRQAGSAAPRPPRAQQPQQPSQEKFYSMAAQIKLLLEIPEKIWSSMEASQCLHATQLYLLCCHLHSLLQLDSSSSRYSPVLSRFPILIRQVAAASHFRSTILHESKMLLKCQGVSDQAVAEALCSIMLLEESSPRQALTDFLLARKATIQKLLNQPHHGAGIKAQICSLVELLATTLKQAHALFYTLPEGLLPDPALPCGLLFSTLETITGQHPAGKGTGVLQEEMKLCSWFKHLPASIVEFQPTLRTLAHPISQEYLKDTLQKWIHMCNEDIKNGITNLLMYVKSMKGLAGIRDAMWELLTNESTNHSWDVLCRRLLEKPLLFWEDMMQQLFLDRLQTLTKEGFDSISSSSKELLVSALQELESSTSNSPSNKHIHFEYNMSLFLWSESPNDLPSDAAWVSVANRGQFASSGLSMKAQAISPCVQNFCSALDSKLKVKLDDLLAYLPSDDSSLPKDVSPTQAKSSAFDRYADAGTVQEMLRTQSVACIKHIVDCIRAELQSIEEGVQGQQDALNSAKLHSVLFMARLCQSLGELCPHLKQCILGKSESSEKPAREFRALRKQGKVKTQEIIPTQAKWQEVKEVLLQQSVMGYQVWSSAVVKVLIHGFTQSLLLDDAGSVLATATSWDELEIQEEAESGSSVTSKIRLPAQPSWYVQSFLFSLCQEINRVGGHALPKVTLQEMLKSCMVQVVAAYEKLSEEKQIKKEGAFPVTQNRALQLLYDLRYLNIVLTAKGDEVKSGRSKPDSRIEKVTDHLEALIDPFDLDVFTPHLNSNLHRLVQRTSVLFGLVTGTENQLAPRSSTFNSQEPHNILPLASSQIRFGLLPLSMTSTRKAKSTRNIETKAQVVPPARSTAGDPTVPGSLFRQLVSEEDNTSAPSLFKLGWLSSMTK
Conditions: protein COG1; HeLa.

Test [3] addresses T3, HeLa cell extract proteins (Homo sapiens, UniProt P14314).
T3 construct: endogenous in cells; host or cells: HeLa cell extract
T3 sequence (P14314 15-528): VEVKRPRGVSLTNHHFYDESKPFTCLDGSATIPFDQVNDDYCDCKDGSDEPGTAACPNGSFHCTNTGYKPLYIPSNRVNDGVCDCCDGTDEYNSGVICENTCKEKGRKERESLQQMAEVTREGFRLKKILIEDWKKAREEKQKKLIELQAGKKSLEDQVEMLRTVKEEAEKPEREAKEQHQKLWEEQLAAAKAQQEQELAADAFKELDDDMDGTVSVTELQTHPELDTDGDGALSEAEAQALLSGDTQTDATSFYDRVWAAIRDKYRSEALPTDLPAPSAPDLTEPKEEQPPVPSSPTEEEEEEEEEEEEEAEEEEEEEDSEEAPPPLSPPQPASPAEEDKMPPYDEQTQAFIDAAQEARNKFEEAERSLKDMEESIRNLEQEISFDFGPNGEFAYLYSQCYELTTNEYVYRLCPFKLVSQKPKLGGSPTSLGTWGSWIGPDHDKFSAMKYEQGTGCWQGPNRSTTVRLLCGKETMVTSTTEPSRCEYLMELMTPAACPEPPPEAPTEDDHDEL
Conditions: HeLa; protein PRKCSH (CDNA FLJ59211, HIGHLY SIMILAR TO GLUCOSIDASE 2 SUBUNIT BETA.).

Test [4] has as its target T4, HeLa cell extract proteins (Homo sapiens, UniProt P53597).
T4 construct: endogenous in cells; host or cells: HeLa cell extract

Test [5] has as its target T5, HeLa cell extract proteins (Homo sapiens, UniProt P20671).
T5 construct: endogenous in cells; host or cells: HeLa cell extract

T4 sequence (P53597 41-346): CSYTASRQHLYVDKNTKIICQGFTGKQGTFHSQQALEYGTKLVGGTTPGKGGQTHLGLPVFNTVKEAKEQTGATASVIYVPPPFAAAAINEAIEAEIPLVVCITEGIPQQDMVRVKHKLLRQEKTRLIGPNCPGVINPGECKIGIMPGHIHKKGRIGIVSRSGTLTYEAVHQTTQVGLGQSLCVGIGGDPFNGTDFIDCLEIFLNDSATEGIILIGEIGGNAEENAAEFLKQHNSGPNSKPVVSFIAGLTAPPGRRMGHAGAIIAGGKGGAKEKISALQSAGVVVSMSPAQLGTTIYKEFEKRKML

Turning to `Nc1nc2cccc(-c3ccccc3)c2n1Cc1ccc(Cl)c(Cl)c1` [compound 3], the “fold changes relative to vehicle control” value in test [1] came to 1; in test [2], 0.98; in test [3], 1.26 fold.
On to `NCCOCCOCC(=O)Nc1nc2ncc(CNc3ccc(C(=O)NC(CCC(=O)O)C(=O)O)cc3)nc2c(=O)[nH]1` (centres unmarked) [compound 6], for which the “fold changes relative to vehicle control” value in test [4] (protein SUCLG1, HeLa) is 1.3; in test [5] (HeLa, protein HIST1H2AD) it was 1.18.
Take `Nc1nc2[nH]cc(CCc3ccc(C(=O)N[C@@H](CCC(=O)O)C(=O)O)cc3)c2c(=O)[nH]1` [PTX, pemetrexed]: the “fold changes relative to vehicle control” value is 1.09 in test [4] and 1.03 in test [5].
Take `Nc1nc2c(c(=O)[nH]1)N(C=O)C(CNc1ccc(C(=O)N[C@@H](CCC(=O)O)C(=O)O)cc1)CN2` (some centres unmarked) [LEU, leucovorin]: the “fold changes relative to vehicle control” value in test [4] (protein SUCLG1, HeLa) is 0.95; in test [5] (HeLa, protein HIST1H2AD), 0.96.
With `CCCCCCOc1ccc(Cc2cnc(N)nc2N)cc1` [compound 1], the “fold changes relative to vehicle control” value was determined as 0.39 in test [1], 1 in test [2] and 1.76 fold in test [3].
In the case of `NCCCNc1ccc(C(=O)NC(CCC(=O)O)C(=O)O)cc1` (centres unmarked) [compound 7], the “fold changes relative to vehicle control” value in test [4] (protein SUCLG1, HeLa) was found to be 0.81; in test [5] (HeLa, protein HIST1H2AD), 0.97.
For `CCCCCCOc1cccc(Cc2cnc(N)nc2N)c1` [compound 2], the “fold changes relative to vehicle control” value is reported as 1.21 in test [1], 1.21 in test [2] and 2.8 fold in test [3].
